Laboratory results from US8513232B2, “Substituted spirocyclic piperidine derivatives as histamine-3 (H3) receptor ligands” (Cephalon, Inc., priority 2008, dated 2013).
Read-outs that look alike come from different tables or passages of the source.

Assays:
human H3 receptor = target: T1, human H3 receptor (Homo sapiens, UniProt Q9Y5N1); test: Human H3 radioligand binding ([3H]-N-alpha-methylhistamine, SPA)
T1 construct: expressed in transfected cells
Procedure, shortened: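 SPA competition binding on membranes from CHO cells stably expressing human H3 receptor (10 μg protein/well) with ~1 nM [3H]-N-alpha-methylhistamine and compound at 0.01 nM-30 μM. Incubation 4 h at room temperature in 50 mM Tris-HCl pH 7.4, 5 mM MgCl2, 0.1% BSA; non-specific binding defined with 10 μM clobenpropit.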

[1] = target: T2, rat histamine H3 receptor (Rattus norvegicus, UniProt Q9QYN8); test: Rat H3 radioligand binding ([3H]-N-alpha-methylhistamine, SPA)
T2 construct: encoding the entire 445-amino-acid rat histamine H3 receptor; expressed in transfected cells; membrane preparation
Procedure, shortened: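 Membranes from CHO-A3 cells stably expressing full-length rat H3 receptor (10 μg protein/well) incubated 4 h at room temperature, protected from light, with ~1 nM [3H]-N-alpha-methylhistamine and compound (0.01 nM-30 μM) in 50 mM Tris HCl pH 7.4, 5 mM MgCl2, 0.1% BSA. Binding read by SPA; 10 μM clobenpropit defined non-specific binding.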

[2] = Table A, human H3 binding, read-out: Human Ki
[3] = Table A, rat H3 binding, read-out: Rat Ki
[4] = human H3 binding, Table D, read-out: Human H3 Ki
[5] = rat H3 binding, Table D, read-out: Rat H3 Ki
[6] = Human H3 binding, Table B, Examples 136-362, read-out: hum H3 binding Ki
[7] = Rat H3 binding, Table B, Examples 136-362, read-out: rat H3 binding Ki
[8] = Table C, human H3 binding, read-out: Human H3 Ki
[9] = Table C, rat H3 binding, read-out: Rat H3 Ki

T1 sequence (Q9Y5N1 whole entry): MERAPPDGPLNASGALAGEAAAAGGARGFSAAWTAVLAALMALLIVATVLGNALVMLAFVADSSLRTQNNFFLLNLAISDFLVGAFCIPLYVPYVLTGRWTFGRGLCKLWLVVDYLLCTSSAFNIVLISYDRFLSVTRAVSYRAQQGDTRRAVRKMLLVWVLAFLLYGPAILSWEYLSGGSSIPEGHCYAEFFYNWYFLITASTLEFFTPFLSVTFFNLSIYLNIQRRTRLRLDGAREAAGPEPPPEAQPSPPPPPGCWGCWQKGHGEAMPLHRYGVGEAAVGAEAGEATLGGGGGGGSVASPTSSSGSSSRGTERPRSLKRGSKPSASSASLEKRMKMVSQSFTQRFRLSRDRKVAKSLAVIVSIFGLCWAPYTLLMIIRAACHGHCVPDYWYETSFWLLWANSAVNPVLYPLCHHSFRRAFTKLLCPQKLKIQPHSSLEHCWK
T2 sequence (Q9QYN8 whole entry): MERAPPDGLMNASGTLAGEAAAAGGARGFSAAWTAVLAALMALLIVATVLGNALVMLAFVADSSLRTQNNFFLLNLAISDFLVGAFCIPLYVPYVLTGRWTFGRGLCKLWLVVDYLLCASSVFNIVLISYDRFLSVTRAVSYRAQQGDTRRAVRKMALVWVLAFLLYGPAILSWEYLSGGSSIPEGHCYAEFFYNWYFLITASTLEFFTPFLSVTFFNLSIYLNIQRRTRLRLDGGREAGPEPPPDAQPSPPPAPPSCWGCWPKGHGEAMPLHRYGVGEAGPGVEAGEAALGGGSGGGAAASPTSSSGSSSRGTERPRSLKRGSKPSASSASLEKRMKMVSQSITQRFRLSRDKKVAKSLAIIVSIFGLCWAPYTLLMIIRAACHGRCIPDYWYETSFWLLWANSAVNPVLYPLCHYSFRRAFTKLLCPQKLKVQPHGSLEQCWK

| Compound | melting point | Ki (human H3 receptor; [6]) [nM] | Ki [1, 7] [nM] | also measured |
| --- | --- | --- | --- | --- |
| CN1CCN(c2ccc3c(c2)CCC2(CCN(C4CCC4)CC2)O3)C1=O [Example 121] | 228 to 230 °C |  |  | Ki (human H3 receptor; [2]): < 200 nM; Ki [1, 3]: < 200 nM |
| CN(C)C(=O)c1ccc(-c2ccc3c(c2)COC2(CCN(C4CCC4)CC2)O3)cc1 [Example 29] | 187 to 190 °C |  |  | Ki (human H3 receptor; [2]): < 200 nM; Ki [1, 3]: < 200 nM |
| N#Cc1ccc(Oc2ccc3c(c2)CCC2(CCN(C4CCC4)CC2)O3)cc1 [Example 223] | 237 to 239 °C | < 200 | < 200 |  |
| CNC(=O)c1ccc(Oc2ccc3c(c2)CCC2(CCN(C4CCC4)CC2)O3)cc1 [Example 282] | 179 to 181 °C | < 200 | < 200 |  |
| O=C(c1ccc(-c2ccc3c(c2)COC2(CCN(C4CCC4)CC2)O3)cc1F)N1CCCC1 [Example 41] | 171 to 172.5 °C |  |  | Ki (human H3 receptor; [2]): < 200 nM; Ki [1, 3]: < 200 nM |
| c1cc(-c2ccc3c(c2)CCC2(CCN(C4CCC4)CC2)O3)ccc1C1=NCCO1 [Example 158] | 213 to 215 °C | < 200 | < 200 |  |
| c1ccc(Nc2ccc3c(c2)COC2(CCN(C4CCC4)CC2)O3)nc1 [Example 126] | 159 to 161 °C |  |  | Ki (human H3 receptor; [2]): < 200 nM; Ki [1, 3]: < 200 nM |
| Cc1cc(C(=O)Nc2ccc3c(c2)COC2(CCN(C4CCC4)CC2)O3)cc(C)n1 [Example 296] | 191 to 193 °C | < 200 | < 200 |  |
| Clc1ccc(Nc2ccc3c(c2)COC2(CCN(C4CCC4)CC2)O3)cc1 [Example 259] | 234 to 235 °C | < 200 | < 200 |  |
| O=C(Nc1cccc(F)c1)Nc1ccc2c(c1)COC1(CCN(C3CCC3)CC1)O2 [Example 245] | 227 to 228 °C | < 200 | < 200 |  |
| c1ccc(Nc2ccc3c(c2)OC2(CCN(C4CCC4)CC2)O3)cc1 [Example 170] | 238 to 240 °C | < 200 | < 200 |  |
| COC1CCN(C(=O)c2ccc(-c3ccc4c(c3)COC3(CCN(C5CCC5)CC3)O4)cc2)CC1 [Example 263] | 94 to 96 °C | < 200 | < 200 |  |
| N#Cc1cccc(Nc2ccc3c(c2)COC2(CCN(C4CCC4)CC2)O3)c1 [Example 123] | 55 to 60 °C |  |  | Ki (human H3 receptor; [2]): < 200 nM; Ki [1, 3]: < 200 nM |
| CNC(=O)c1ccc(-c2ccc3c(c2)CCC2(CCN(C4CCC4)CC2)O3)cn1 [Example 156] | 67 to 69 °C | < 200 | < 200 |  |
| O=S(=O)(c1ccc(-c2ccc3c(c2)COC2(CCN(C4CCC4)CC2)O3)cc1)N1CCCCC1 [Example 37] | 85 to 90 °C |  |  | Ki (human H3 receptor; [2]): < 200 nM; Ki [1, 3]: < 200 nM |
| N#Cc1ccc(C(=O)Nc2ccc3c(c2)CCC2(CCN(C4CCC4)CC2)O3)cc1 [Example 224] | 186 to 188 °C | < 200 | < 200 |  |
| CS(=O)(=O)c1ccc(-c2ccc3c(c2)CC2(CCN(C4CCC4)CC2)O3)cc1 [Example 135, 1′-Cyclobutyl-spirobenzofuran-2(3H)-4′-piperidine-(5-(4-methylsulfonylphenyl))] | > 25 °C |  |  | Ki (human H3 receptor; [2]): < 200 nM; Ki [1, 3]: < 200 nM |
| O=C(c1ccccc1Nc1ccc2c(c1)COC1(CCN(C3CCC3)CC1)O2)N1CCOCC1 [Example 159] | 60 to 63 °C | < 200 | 200 to 1000 |  |
| CN(C)C(=O)c1ccc(-c2ccc3c(c2)COC2(CCN(C4CCC4)CC2)O3)cc1F [Example 40] | 172.9 to 173.5 °C |  |  | Ki (human H3 receptor; [2]): < 200 nM; Ki [1, 3]: < 200 nM |
| CNC(=O)c1cnc(-c2ccc3c(c2)CCC2(CCN(C4CCC4)CC2)O3)s1 [Example 218] | 201 to 203 °C | < 200 | < 200 |  |
| O=C(Nc1ccc(Cl)cc1)Nc1ccc2c(c1)COC1(CCN(C3CCC3)CC1)O2 [Example 184] | 201 to 203 °C | < 200 | 200 to 1000 |  |

More lines, main results first:

| melting point | Ki (human H3 receptor; [6]) [nM] | Ki [1, 7] [nM] | Compound | also measured |
| --- | --- | --- | --- | --- |
| 139 to 141 °C |  |  | c1ccc(COc2ccc(-c3ccc4c(c3)COC3(CCN(C5CCC5)CC3)O4)cn2)cc1 [Example 529] | Ki (human H3 receptor; read-out: Human H3 Ki): < 200 nM; Ki ([1]; read-out: Rat H3 kI): 200 to 1000 nM |
| 180 to 182 °C |  |  | Cc1cc(C(N)=O)ccc1-c1ccc2c(c1)COC1(CCN(C3CCC3)CC1)O2 [Example 693] | Ki (human H3 receptor; [4]): < 200 nM; Ki [1, 5]: < 200 nM |
| 113 to 115 °C |  |  | OC1CCC(c2ccc3c(c2)COC2(CCN(C4CCC4)CC2)O3)CC1 (stereo not drawn) [Example 531] | Ki (human H3 receptor; read-out: Human H3 Ki): < 200 nM; Ki ([1]; read-out: Rat H3 kI): < 200 nM |
| 148 to 149 °C |  |  | CS(=O)(=O)c1cncc(-c2ccc3c(c2)COC2(CCN(C4CCC4)CC2)O3)c1 [Example 655] | Ki (human H3 receptor; [4]): < 200 nM; Ki [1, 5]: < 200 nM |
| 225 to 227 °C | < 200 | < 200 | COCCN(C)C(=O)c1ccc(-c2ccc3c(c2)CCC2(CCN(C4CCC4)CC2)O3)cc1 [Example 303] |  |
| 164 to 165 °C |  |  | OC1(c2ccc3c(c2)COC2(CCN(C4CCC4)CC2)O3)CCCCC1 [Example 512] | Ki (human H3 receptor; read-out: Human H3 Ki): < 200 nM; Ki ([1]; read-out: Rat H3 kI): < 200 nM |
| 128 to 130 °C | < 200 | < 200 | O=C(C1CC1)N1CCC(COc2ccc3c(c2)CCC2(CCN(C4CCC4)CC2)O3)CC1 [Example 358] |  |
| 117 to 118 °C | < 200 | < 200 | c1cncc(CNc2ccc3c(c2)COC2(CCN(C4CCC4)CC2)O3)c1 [Example 321] |  |
| 177 to 178 °C |  |  | c1cc2c(cc1OCC1CC1)CCC1(CCN(C3CCC3)C1)O2 (stereo not drawn) [Example 446] | Ki (human H3 receptor; read-out: Human H3 Ki): 200 to 1000 nM; Ki ([1]; read-out: Rat H3 kI): 200 to 1000 nM |
| 179 to 181 °C |  |  | CC(C)n1cc(Cl)c(-c2ccc3c(c2)COC2(CCN(C4CCC4)CC2)O3)cc1=O [Example 779] | Ki (human H3 receptor; [4]): < 200 nM; Ki [1, 5]: < 200 nM |
| 170 to 172 °C |  |  | O=C1CCCN1CCOc1ccc2c(c1)CCC1(CCN(C3CCC3)CC1)O2 [Example 458] | Ki (human H3 receptor; read-out: Human H3 Ki): < 200 nM; Ki ([1]; read-out: Rat H3 kI): < 200 nM |
| 125 to 127 °C |  |  | O=c1ccc(-c2ccc3c(c2)COC2(CCN(C4CCC4)CC2)O3)cn1C(F)F [Example 737] | Ki (human H3 receptor; [4]): < 200 nM; Ki [1, 5]: < 200 nM |
| 133 to 135 °C |  |  | O=C(c1ccco1)N1CCN(c2ccc3c(c2)CCC2(CCN(C4CCC4)CC2)O3)CC1 [Example 387] | Ki (human H3 receptor; [8]): < 200 nM; Ki [1, 9]: < 200 nM |
| 206 to 207 °C |  |  | Cc1nc2ccccc2c(=O)n1-c1ccc2c(c1)COC1(CCN(C3CCC3)CC1)O2 [Example 787] | Ki (human H3 receptor; [4]): < 200 nM; Ki [1, 5]: < 200 nM |
| 284 to 286 °C |  |  | O=c1ccc(Oc2ccc3c(c2)CCC2(CCN(C4CCC4)CC2)O3)c[nH]1 [Example 485] | Ki (human H3 receptor; read-out: Human H3 Ki): < 200 nM; Ki ([1]; read-out: Rat H3 kI): < 200 nM |
| 276 to 278 °C |  |  | CC(=O)N1CCCN(c2ccc3c(c2)CCC2(CCN(C4CCC4)CC2)O3)CC1 [Example 395] | Ki (human H3 receptor; [8]): < 200 nM; Ki [1, 9]: < 200 nM |
| 158 to 160 °C |  |  | O=C(NC1CCOCC1)c1cccc(COc2ccc3c(c2)CCC2(CCN(C4CCC4)CC2)O3)c1 [Example 646] | Ki (human H3 receptor; [4]): < 200 nM; Ki [1, 5]: < 200 nM |
| 272 to 274 °C |  |  | CN(C)C(=O)N1CCN(c2ccc3c(c2)CCC2(CCN(C4CCC4)CC2)O3)CC1 [Example 392] | Ki (human H3 receptor; [8]): < 200 nM; Ki [1, 9]: < 200 nM |
| 192 to 194 °C |  |  | CNC(=O)c1ccc(-c2ccc3c(c2)CCC2(CCN(C4CCC4)CC2)O3)nc1 [Example 595] | Ki (human H3 receptor; [4]): < 200 nM; Ki [1, 5]: < 200 nM |
| 140 to 142 °C |  |  | CN(C)C(=O)C1CCN(c2ccc3c(c2)CCC2(CCN(C4CCC4)CC2)O3)CC1 [Example 436] | Ki (human H3 receptor; [8]): < 200 nM; Ki [1, 9]: < 200 nM |
| 205 to 207 °C |  |  | O=C(N[C@H]1CCOC1)c1ccc(-c2ccc3c(c2)COC2(CCN(C4CCC4)CC2)O3)cc1 [Example 600] | Ki (human H3 receptor; [4]): < 200 nM; Ki [1, 5]: < 200 nM |
| > 250 °C (dec.) |  |  | FC1(F)CCN(c2ccc3c(c2)COC2(CCN(C4CCC4)CC2)O3)CC1 [Example 422] | Ki (human H3 receptor; [8]): < 200 nM; Ki [1, 9]: 200 to 1000 nM |
| 129 to 134 °C |  |  | CC(C)N1CC(c2ccc3c(c2)COC2(CCN(C4CCC4)CC2)O3)CCC1=O (stereo not drawn) [Example 563] | Ki (human H3 receptor; read-out: Human H3 Ki): < 200 nM; Ki ([1]; read-out: Rat H3 kI): < 200 nM |
| 86 to 88 °C |  |  | COc1cc(-c2ccc3c(c2)COC2(CCN(C4CCC4)CC2)O3)ccc1C(=O)NC1CCOCC1 [Example 635] | Ki (human H3 receptor; [4]): < 200 nM; Ki [1, 5]: < 200 nM |
| 143 to 145 °C |  |  | COc1ccc(-c2ccc3c(c2)COC2(CCN(CCC4CCOCC4)CC2)O3)cn1 [Example 711] | Ki (human H3 receptor; [4]): > 1000 nM; Ki [1, 5]: > 1000 nM |
| 142 to 145 °C |  |  | O=C(NC[C@@H]1CCCO1)c1c(F)cc(-c2ccc3c(c2)COC2(CCN(C4CCC4)CC2)O3)cc1F [Example 599] | Ki (human H3 receptor; [4]): < 200 nM; Ki [1, 5]: < 200 nM |
| 223.5 to 225.8 °C |  |  | C/C=C(\CC)c1ccc2c(c1)COC1(CCN(C3CCC3)CC1)O2 [Example 677] | Ki (human H3 receptor; [4]): < 200 nM; Ki [1, 5]: < 200 nM |
| 97 to 99 °C |  |  | CN(C)S(=O)(=O)c1ccc(-c2ccc3c(c2)COC2(CCN(C4CCC4)CC2)O3)cc1Cl [Example 621] | Ki (human H3 receptor; [4]): < 200 nM; Ki [1, 5]: < 200 nM |
